For 24 compounds, EC50 results are on record in patent US12180226B2, “Spirotricycle RIPK1 inhibitors and methods of uses thereof” (Merck Sharp & Dohme LLC, priority 2021, dated 2024).

Counter-ions that a name gives are not always drawn.

This test deals with RIPK1 (recombinant GST-RIPK1 kinase domain, residues 1-327) (Homo sapiens (Human), UniProt Q13546). Description: RIPK1-ADP-Glo Enzymatic Assay. Type of test: biochemical. The note with it: ADP-Glo; 25 nM GST-RIPK1, 300 μM ATP; assay lower limit ~25 nM; read-out: RIPK1 V0 Ec50. The method, then: RIPK1-ADP-Glo Enzymatic Assay
Sequence of RIPK1 (recombinant GST-RIPK1 kinase domain, residues 1-327) (Q13546 1-327): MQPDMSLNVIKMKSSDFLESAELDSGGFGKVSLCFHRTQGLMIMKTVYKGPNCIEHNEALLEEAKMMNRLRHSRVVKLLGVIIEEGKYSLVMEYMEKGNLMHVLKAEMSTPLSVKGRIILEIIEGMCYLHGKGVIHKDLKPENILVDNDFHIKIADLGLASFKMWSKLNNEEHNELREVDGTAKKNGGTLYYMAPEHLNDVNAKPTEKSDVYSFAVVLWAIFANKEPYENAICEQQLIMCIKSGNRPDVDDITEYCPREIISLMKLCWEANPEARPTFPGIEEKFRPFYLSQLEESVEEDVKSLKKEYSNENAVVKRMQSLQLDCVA
The enzymatic activity of RIPK1 is measured using an assay derived from ADP-Glo kit (TMPromega), which provides a luminescent-based ADP detection system. Specifically, the ADP generated by RIPK1 kinase is proportionally detected as luminescent signals in a homogenous fashion. In this context, the assessment of the inhibitory effect of small molecules (EC50) is measured by the effectiveness of the compounds to inhibit the ATP to ADP conversion by RIPK1.
In this assay, the potency (EC50) of each compound was determined from a ten-point (1:3 serial dilution; top compound concentration of 100000 nM) titration curve using the following outlined procedure. The assay bottom or lower limit of confidence is ˜25 nM. To each well of a white ProxiPlus 384 well-plate, 30 nL of compound (1% DMSO in final assay volume of 3 μL) was dispensed, followed by the addition of 2 μL of 1×assay buffer (25 mM Hepes 7.3, 20 mM MgCl2, 50 mM NaCl, 1 mM DTT, 0.005% Tween20, and 0.02% BSA) containing 37.5 nM of GST-RIPK1 (recombinant GST-RIPK1 kinase domain (residues 1-327) enzyme produced from baculovirus-transfected Sf21 cells: MW=62 kDa). Plates were placed in an ambient temperature humidified chamber for a 30-minute pre-incubation with compound. Subsequently, each reaction was initiated by the addition of 1 μL 1×assay buffer containing 900 μM ATP and […] dephosphorylated-MBP substrate. The final reaction in each well of 3 μL consists of 25 nM of GST-RIPK1, 300 μM ATP, and 3 μM dephosphorylated-MBP. Kinase reactions were allowed to proceed for 150 minutes prior to adding ADP-Glo reagents per Promega's outlined kit protocol. Dose-response curves were generated by plotting percent effect (% product conversion; Y-axis) vs. Log10 compound concentrations (X-axis). EC50 values were calculated using a non-linear regression, four-parameters sigmoidal dose-response model.

With `CC1(C)Cc2cccc(C(=O)N3CCC4(CC3)O[C@@H]3CC[C@@H](c5cc(F)cc(F)c5)N3C4=O)c2O1` [Example 6.32, (5′S,7a′R)-5′-(3,5-difluorophenyl)-1-(2,2-dimethyl-2,3-dihydro-1-benzo-furan-7-carbonyl)-tetrahydro-3′H-spiro [piperidine-4,2′-pyrrolo[2,1-b][1,3]oxazol]-3′-one], the EC50 (commonly the concentration needed to bring the measured effect to its halfway point) was found to be 228 nM.
For the compound `O=C1N2[C@@H](CC[C@H]2c2ccccc2)OC12CCN(c1ccc(Br)n3ncnc13)CC2` [Example 4.216, (5′S,7a′R)-1-(5-bromo [1,2,4]triazolo[1,5-a]pyridin-8-yl)-5′-phenyltetrahydro-3′H-spiro[piperidine-4,2′-pyrrolo[2,1-b] [1,3]oxazol]-3′-one], the EC50 is less than 25 nM.
The figure for `O=C(c1ccccc1)N1CCC2(CC1)SC1CC[C@@H](c3cc(F)cc(F)c3)N1C2=O` (stereo partly drawn) [Example 1.22, (5′S)-1-benzoyl-5′-(3,5-difluorophenyl)tetrahydro-3′H-spiro[piperidine-4,2′-pyrrolo[2,1-b]thiazol]-3′-one] is less than 25 nM; for `O=C1N2C(CCC2c2cc(F)cc(F)c2)SC12CCN(c1ccnc3c(F)cnn13)CC2` (stereo not drawn) [Example 4.110, 5′-(3,5-difluorophenyl)-1-(3-fluoropyrazolo[1,5-a]pyrimidin-7-yl)tetrahydro-3′H-spiro[piperidine-4,2′-pyrrolo[2,1-b]thiazol]-3′-one] it is less than 25 nM.
Then `O=C(c1cc(F)ccc1F)N1CCC2(CC1)O[C@@H]1CC[C@@H](c3cc(F)cc(F)c3)N1C2=O` [Example 5.1, (5′S,7a′R)-1-(2,5-Difluorobenzoyl)-5′-(3,5-difluorophenyl)tetrahydro-3′H-spiro[piperidine-4,2′-pyrrolo[2,1-b]oxazol]-3′-one], with less than 25 nM.
Then `O=C(c1cccc(F)c1)N1CCC2(CC1)O[C@@H]1CC[C@@H](c3ccc(F)cc3)N1C2=O` [Example 7.1, (5′S,7a′R)-1-(3-Fluorobenzoyl)-5′-(4-fluorophenyl)tetrahydro-3′H-spiro[piperidine-4,2′-pyrrolo[2,1-b]oxazol]-3′-one], with 121 nM; and `O=C1N2[C@@H](CC[C@H]2c2cc(F)cc(F)c2)OC12CCN(c1cncc3nccn13)CC2` [Example 13.8, (5′S,7a′R)-5′-(3,5-difluorophenyl)-1-(imidazo[1,2-a]pyrazin-5-yl)tetrahydro-3′H-spiro[piperidine-4,2′-pyrrolo[2,1-b]oxazol]-3′-one, TFA salt], with 664 nM.
As to `COc1cccc(F)c1C(=O)N1CCC2(CC1)O[C@@H]1CC[C@@H](c3cc(F)cc(F)c3)N1C2=O` [Example 6.72, (5′S,7a′R)-5′-(3,5-difluorophenyl)-1-(2-fluoro-6-methoxy-benzene-1-carbonyl) tetrahydro-3′H-spiro [piperidine-4,2′-pyrrolo[2,1-b][1,3]-oxazol]-3′-one], the 50% effective concentration (EC50) was 41.3 nM.
Then `O=C(c1ccc(-n2nccn2)cc1)N1CCC2(CC1)O[C@@H]1CC[C@@H](c3cc(F)cc(F)c3)N1C2=O` [Example 6.21], with 881 nM; and `COc1cnc(N2CCC3(CC2)O[C@@H]2CC[C@@H](c4cc(F)cc(F)c4)N2C3=O)nc1` [Example 4.64, (5′S,7a′R)-5′-(3,5-difluorophenyl)-1-(5-methoxypyrimidin-2-yl)tetrahydro-3′H-spiro[piperidine-4,2′-pyrrolo[2,1-b] [1,3]oxazol]-3′-one], with 80.7 nM; and `O=C1CCc2c1cccc2C(=O)N1CCC2(CC1)O[C@@H]1CC[C@@H](c3cc(F)cc(F)c3)N1C2=O` [Example 5.28, (5′S,7a′R)-5′-(3,5-difluoro-phenyl)-1-(1-oxo-2,3-dihydro-1H-indene-4-carbonyl)tetrahydro-3′H-spiro[piperidine-4,2′-pyrrolo[2,1-b]oxazol]-3′-one], with 208 nM.
The figure for `O=C1N2[C@@H](CC[C@H]2c2cc(F)cc(F)c2)OC12CCN(c1ncnc3c(F)cnn13)CC2` [Example 4.250, (5′S,7a′R)-5′-(3,5-difluorophenyl)-1-(8-fluoropyrazolo[1,5-a] [1,3,5]triazin-4-yl)tetrahydro-3′H-spiro[piperidine-4,2′-pyrrolo[2,1-b] [1,3]oxazol]-3′-one] is less than 25 nM; for `O=C(c1cnnc2ccccc12)N1CCC2(CC1)O[C@@H]1CC[C@@H](c3cc(F)cc(F)c3)N1C2=O` [Example 6.58, (5′S,7a′R)-1-(cinn-oline-4-carbonyl)-5′-(3,5-difluorophenyl) tetrahydro-3′H-spiro [piperidine-4,2′-pyrrolo[2,1-b][1,3]-oxazol]-3'-one] it is 263 nM; for `O=C1N2[C@@H](CC[C@H]2c2ccccc2F)OC12CCN(c1cc(Cl)ncn1)CC2` [Example 4.99, (5′S,7a′R)-1-(6-chloropyrimidin-4-yl)-5′-(2-fluorophenyl)tetrahydro-3′H-spiro[piperidine-4,2′-pyrrolo[2,1-b]oxazol]-3′-one] it is less than 25 nM.
The figure for `N#Cc1cc(C(=O)N2CCC3(CC2)O[C@@H]2CC[C@@H](c4cc(F)cc(F)c4)N2C3=O)ccc1F` [Example 5.14, 5-((5′S,7a′R)-5′-(3,5-difluorophenyl)-3′-oxo-tetrahydro-3′H-spiro [piperidine-4,2′-pyrrolo-[2,1-b]oxazole]-1-carbon-yl)-2-fluorobenzonitrile] is less than 25 nM; for `O=C(c1cc(F)ccc1F)N1CCC2(CC1)SC1CCC(c3ccccc3)N1C2=O` (stereo not drawn) [Example 1.24, 1-(2,5-difluorobenzene-1-carbonyl)-5′-phenyltetrahydro-3′H-spiro[piperidine-4,2′-pyrrolo[2,1-b] [1,3]thiazol]-3′-one] it is 23 nM.
For the compound `O=C(c1ccccc1F)N1CCC2(CC1)O[C@@H]1CC[C@@H](c3ccccc3F)N1C2=O` [Example 1.16, (5′S,7a′R)-1-(2-fluorobenzoyl)-5′-(2-fluorophenyl)tetrahydro-3′H-spiro[piperidine-4,2′-pyrrolo[2,1-b]oxazol]-3′-one], the EC50 was less than 25 nM.
As for `Cc1ccc([C@@H]2CC[C@H]3OC4(CCN(C(=O)c5ccccc5)CC4)C(=O)N32)cc1F` [Example 17.15, (5′S,7a′R)-1-(benzenecarbonyl)-5′-(3-fluoro-4-methylphenyl)tetrahydro-3′H-spiro[piperidine-4,2′-pyrrolo[2,1-b][1,3]oxazol]-3′-one], the EC50 was less than 25 nM.
Then `O=C1N2[C@@H](CC[C@H]2c2cc(F)cc(F)c2)OC12CCN(c1ccc(OCC3CCO3)c3ccnn13)CC2` (mixture of isomers) [Example 19.5, (5′S,7a′R)-5′-(3,5-difluorophenyl)-1-(4-(((R and S)-oxetan-2-yl)methoxy)pyrazolo [1,5-a]pyridin-7-yl)tetrahydro-3′H-spiro[piperidine-4,2′-pyrrolo[2,1-b]oxazol]-3′-one, TFA salt], with 208 nM.
The figure for `O=C(c1ccn2ncnc2n1)N1CCC2(CC1)O[C@@H]1CC[C@@H](c3cc(F)cc(F)c3)N1C2=O` [Example 6.87, (5′S,7a′R)-5′-(3,5-difluorophenyl)-1-([1,2,4]triazolo[1,5-a]pyrimidine-5-carbonyl)tetrahydro-3′H-spiro[piperidine-4,2′-pyrrolo[2,1-b] [1,3]oxazol]-3′-one] is 43.8 nM; for `N#Cc1cc(N2CCC3(CC2)SC2CCC(c4cc(F)cc(F)c4)N2C3=O)ncn1` (stereo not drawn) [Example 4.111, 6-(5′-(3,5-difluorophenyl)-3′-oxotetrahydro-3′H-spiro[piperidine-4,2′-pyrrolo[2,1-b]thiazol]-1-yl)pyrimidine-4-carbonitrile] it is 38.1 nM.
Then `O=C(c1cccc(O)c1)N1CCC2(CC1)O[C@@H]1CC[C@@H](c3cc(F)cc(F)c3)N1C2=O` [Example 5.63, (5′S,7a′R)-5′-(3,5-difluoro-phenyl)-1-(3-hydroxy-benzoyl)tetrahydro-3′H-spiro[piperidine-4,2′-pyrrolo[2,1-b]oxazol]-3′-one], with less than 25 nM; and `CCOC(=O)c1ccc(N2CCC3(CC2)O[C@@H]2CC[C@@H](c4ccccc4)N2C3=O)nc1` [Example 4.200, ethyl 6-[(5′S,7a′R)-3′-oxo-5′-phenyltetrahydro-1H,3′H-spiro[piperidine-4,2′-pyrrolo[2,1-b] [1,3]oxazol]-1-yl]pyridine-3-carboxylate], with 52.5 nM; and `O=C1N2[C@@H](CC[C@H]2c2ccccc2F)OC12CN(S(=O)(=O)c1ccc(F)cc1)C2` [Example 8.7, (5′S,7a′R)-5′-(2-fluorophenyl)-1-((4-fluorophenyl)sulfonyl) tetrahydro-3′H-spiro[azetidine-3,2′-pyrrolo[2,1-b]oxazol]-3′-one], with 345 nM.
